Results published in ChEMBL document CHEMBL6121052, “Design of ROS-Triggered Sesquiterpene Lactone SC Prodrugs as TrxR1 Covalent Inhibitors for the Treatment of Non-Small Cell Lung Cancer” (J Med Chem, 2025).
Activity calls are given as the source filed them. The rule behind the calls is not given here.

Key:
A549 = experiment: Cytotoxicity against human A549 cells assessed as cell viability incubated for 48 hrs by MTT assay; assay type: functional, cell-based; conditions: A549, 48 h
NCI-H460 = experiment: Cytotoxicity against human NCI-H460 cells assessed as cell viability incubated for 48 hrs by MTT assay; assay type: functional, cell-based; conditions: for IC50: NCI-H460, 48 h

Row | SMILES | IC50 (A549) [µM] | IC50 (NCI-H460) [µM] | Activity (NCI-H460)
1 | C/C1=C\[C@@H](O)[C@H]2[C@H](CC3=C[C@H](C1)OC3=O)OC(=O)[C@@H]2CSCCCCCCCCCCSC[C@H]1C(=O)O[C@H]2CC3=C[C@H](C/C(C)=C/[C@@H](O)[C@@H]21)OC3=O | > 25 | > 25 | 
2 | C/C1=C\[C@@H](OC(=O)C2CC2)[C@H]2[C@H](CC3=C[C@H](C1)OC3=O)OC(=O)[C@@H]2CSCCCCCCSC[C@H]1C(=O)O[C@H]2CC3=C[C@H](C/C(C)=C/[C@@H](OC(=O)C4CC4)[C@@H]21)OC3=O | > 25 | > 25 | 
3 | C/C1=C\[C@@H](O)[C@H]2[C@H](CC3=C[C@H](C1)OC3=O)OC(=O)[C@@H]2CSc1ccc(F)cc1 | > 25 | > 25 | 
4 | C/C1=C\[C@@H](OC(=O)C2CC2)[C@H]2[C@H](CC3=C[C@H](C1)OC3=O)OC(=O)[C@@H]2CSCCCCCSC[C@H]1C(=O)O[C@H]2CC3=C[C@H](C/C(C)=C/[C@@H](OC(=O)C4CC4)[C@@H]21)OC3=O | > 25 | > 25 | 
5 | C/C1=C\[C@@H](OC(=O)/C=C/c2ccccc2)[C@H]2[C@H](CC3=C[C@H](C1)OC3=O)OC(=O)[C@@H]2CSCCOCCOCCSC[C@H]1C(=O)O[C@H]2CC3=C[C@H](C/C(C)=C/[C@@H](OC(=O)/C=C/c4ccccc4)[C@@H]21)OC3=O | > 25 | > 25 | 
6 | C/C1=C\[C@@H](O)[C@H]2[C@H](CC3=C[C@H](C1)OC3=O)OC(=O)[C@@H]2CSCc1ccc(Cl)cc1 | > 25 | > 25 | 
7 | C/C1=C\[C@@H](OC(=O)c2ccccc2)[C@H]2[C@H](CC3=C[C@H](C1)OC3=O)OC(=O)[C@@H]2CSCCOCCOCCSC[C@H]1C(=O)O[C@H]2CC3=C[C@H](C/C(C)=C/[C@@H](OC(=O)c4ccccc4)[C@@H]21)OC3=O | > 25 | > 25 | 
8 | C/C1=C\[C@@H](OC(=O)OCc2cccs2)[C@H]2[C@H](CC3=C[C@H](C1)OC3=O)OC(=O)[C@@H]2CSC(=S)N(C)C | 2.56 |  | 
9 | CCCCCSC[C@H]1C(=O)O[C@H]2CC3=C[C@H](C/C(C)=C/[C@@H](OC(=O)/C=C/c4ccccc4)[C@@H]21)OC3=O | > 25 | > 25 | 
10 | C/C1=C\[C@@H](OC(=O)/C=C/c2ccccc2)[C@H]2[C@H](CC3=C[C@H](C1)OC3=O)OC(=O)[C@@H]2CSc1ccc(Cl)cc1 | 7.5 | > 25 | 
11 | C/C1=C\[C@@H](OC(=O)C2CC2)[C@H]2[C@H](CC3=C[C@H](C1)OC3=O)OC(=O)[C@@H]2CSC(=S)NCc1ccc(F)cc1 | 1.79 | 15.2 | 
12 | C/C1=C\[C@@H](OC(=O)C2CC2)[C@H]2[C@H](CC3=C[C@H](C1)OC3=O)OC(=O)[C@@H]2CSC1CCCCC1 | > 25 | > 25 | 
13 | C/C1=C\[C@@H](O)[C@H]2[C@H](CC3=C[C@H](C1)OC3=O)OC(=O)[C@@H]2CSC1CCCCC1 | > 25 | > 25 | 
14 | C/C1=C\[C@@H](O)[C@H]2[C@H](CC3=C[C@H](C1)OC3=O)OC(=O)[C@@H]2CSCCCCCCSC[C@H]1C(=O)O[C@H]2CC3=C[C@H](C/C(C)=C/[C@@H](O)[C@@H]21)OC3=O | 21.9 | > 25 | 
15 | CCCCCSC(=O)O[C@@H]1/C=C(\C)C[C@H]2C=C(C[C@@H]3OC(=O)[C@H](CSc4ccc(F)cc4)[C@H]31)C(=O)O2 | 10.7 |  | 
16 | C/C1=C\[C@@H](OC(=O)c2ccccc2)[C@H]2[C@H](CC3=C[C@H](C1)OC3=O)OC(=O)[C@@H]2CSCCCCCCCCCCSC[C@H]1C(=O)O[C@H]2CC3=C[C@H](C/C(C)=C/[C@@H](OC(=O)c4ccccc4)[C@@H]21)OC3=O | > 25 | > 25 | 
17 | C/C1=C\[C@@H](OC(=O)/C=C/c2ccccc2)[C@H]2[C@H](CC3=C[C@H](C1)OC3=O)OC(=O)[C@@H]2CSc1ccc(SC[C@H]2C(=O)O[C@H]3CC4=C[C@H](C/C(C)=C/[C@@H](OC(=O)/C=C/c5ccccc5)[C@@H]32)OC4=O)cc1 | > 25 | > 25 | 
18 | C/C1=C\[C@@H](OC(=O)C2CC2)[C@H]2[C@H](CC3=C[C@H](C1)OC3=O)OC(=O)[C@@H]2CSc1cccc(F)c1 | 5.4 | 13.2 | 
19 | C/C1=C\[C@@H](OC(=O)N2CCCC2)[C@H]2[C@H](CC3=C[C@H](C1)OC3=O)OC(=O)[C@@H]2CSc1ccc(F)cc1 | 7.51 |  | 
20 | C/C1=C\[C@@H](OC(=O)c2ccccc2)[C@H]2[C@H](CC3=C[C@H](C1)OC3=O)OC(=O)[C@@H]2CSCCCCCCSC[C@H]1C(=O)O[C@H]2CC3=C[C@H](C/C(C)=C/[C@@H](OC(=O)c4ccccc4)[C@@H]21)OC3=O | > 25 | > 25 | 
21 | C/C1=C\[C@@H](OC(=O)/C=C/c2ccccc2)[C@H]2[C@H](CC3=C[C@H](C1)OC3=O)OC(=O)[C@@H]2CSCCCCCSC[C@H]1C(=O)O[C@H]2CC3=C[C@H](C/C(C)=C/[C@@H](OC(=O)/C=C/c4ccccc4)[C@@H]21)OC3=O | > 25 | > 25 | 
22 | C/C1=C\[C@@H](O)[C@H]2[C@H](CC3=C[C@H](C1)OC3=O)OC(=O)[C@@H]2CSc1ccc(Br)cc1 | 15.2 | > 25 | 
23 | CCCNC(=S)SC[C@H]1C(=O)O[C@H]2CC3=C[C@H](C/C(C)=C/[C@@H](OC(=O)C4CC4)[C@@H]21)OC3=O | 2.85 | 24.9 | 

Row | SMILES | IC50 (A549) [µM] | IC50 (NCI-H460) [µM] | Activity (NCI-H460)
24 | C#CCNC(=O)O[C@@H]1/C=C(\C)C[C@H]2C=C(C[C@@H]3OC(=O)[C@H](CSC(=S)N(C)C)[C@H]31)C(=O)O2 | 1.76 |  | 
25 | C/C1=C\[C@@H](OC(=O)/C=C/c2ccccc2)[C@H]2[C@H](CC3=C[C@H](C1)OC3=O)OC(=O)[C@@H]2CSc1nc2ccccc2s1 | > 25 | > 25 | 
26 | COc1ccc(SC[C@H]2C(=O)O[C@H]3CC4=C[C@H](C/C(C)=C/[C@@H](OC(=O)C5CC5)[C@@H]32)OC4=O)cc1 | 6.81 | > 25 | 
27 | C/C1=C\[C@@H](O)[C@H]2[C@H](CC3=C[C@H](C1)OC3=O)OC(=O)[C@@H]2CSCCOCCOCCSC[C@H]1C(=O)O[C@H]2CC3=C[C@H](C/C(C)=C/[C@@H](O)[C@@H]21)OC3=O | > 25 | > 25 | 
28 | C/C1=C\[C@@H](OC(=O)c2ccccc2)[C@H]2[C@H](CC3=C[C@H](C1)OC3=O)OC(=O)[C@@H]2CSCCCCCSC[C@H]1C(=O)O[C@H]2CC3=C[C@H](C/C(C)=C/[C@@H](OC(=O)c4ccccc4)[C@@H]21)OC3=O | > 25 | > 25 | 
29 | C/C1=C\[C@@H](O)[C@H]2[C@H](CC3=C[C@H](C1)OC3=O)OC(=O)[C@@H]2CSc1cccc(F)c1 | > 25 | > 25 | 
30 | C/C1=C\[C@@H](OC(=O)c2ccccc2)[C@H]2[C@H](CC3=C[C@H](C1)OC3=O)OC(=O)[C@@H]2CSc1cccc(Br)c1 | 3.66 | > 25 | 
31 | C/C1=C\[C@@H](OC(=O)SC2CCCCC2)[C@H]2[C@H](CC3=C[C@H](C1)OC3=O)OC(=O)[C@@H]2CSC(=S)N(C)C | 2.01 |  | 
32 | C/C1=C\[C@@H](OC(=O)OC2CC2)[C@H]2[C@H](CC3=C[C@H](C1)OC3=O)OC(=O)[C@@H]2CSC(=S)N(C)C | 1.29 |  | 
33 | C/C1=C\[C@@H](OC(=O)OCc2cccs2)[C@H]2[C@H](CC3=C[C@H](C1)OC3=O)OC(=O)[C@@H]2CSc1ccc(F)cc1 | 22.6 |  | 
34 | C/C1=C\[C@@H](OC(=O)c2ccccc2)[C@H]2[C@H](CC3=C[C@H](C1)OC3=O)OC(=O)[C@@H]2CSCCCCCCCCSC[C@H]1C(=O)O[C@H]2CC3=C[C@H](C/C(C)=C/[C@@H](OC(=O)c4ccccc4)[C@@H]21)OC3=O | > 25 | > 25 | 
35 | C#CCNC(=O)O[C@@H]1/C=C(\C)C[C@H]2C=C(C[C@@H]3OC(=O)[C@H](CSc4ccc(F)cc4)[C@H]31)C(=O)O2 | 22.1 |  | 
36 | C/C1=C\[C@@H](OC(=O)C2CC2)[C@H]2[C@H](CC3=C[C@H](C1)OC3=O)OC(=O)[C@@H]2CSCCCCCCCCCCSC[C@H]1C(=O)O[C@H]2CC3=C[C@H](C/C(C)=C/[C@@H](OC(=O)C4CC4)[C@@H]21)OC3=O | > 25 | > 25 | 
37 | C/C1=C\[C@@H](OC(=O)OCc2ccc(F)cc2)[C@H]2[C@H](CC3=C[C@H](C1)OC3=O)OC(=O)[C@@H]2CSc1ccc(F)cc1 | 7.29 |  | 
38 | CCCNC(=O)O[C@@H]1/C=C(\C)C[C@H]2C=C(C[C@@H]3OC(=O)[C@H](CSc4ccc(F)cc4)[C@H]31)C(=O)O2 | 10.5 |  | 
39 | C/C1=C\[C@@H](OC(=O)SCC(C)C)[C@H]2[C@H](CC3=C[C@H](C1)OC3=O)OC(=O)[C@@H]2CSC(=S)N(C)C | 1.37 |  | 
40 | C/C1=C\[C@@H](OC(=O)NCc2cccs2)[C@H]2[C@H](CC3=C[C@H](C1)OC3=O)OC(=O)[C@@H]2CSc1ccc(F)cc1 | 5.51 |  | 
41 | C/C1=C\[C@@H](OC(=O)NC2CC2)[C@H]2[C@H](CC3=C[C@H](C1)OC3=O)OC(=O)[C@@H]2CSC(=S)N(C)C | 2.08 |  | 
42 | C/C1=C\[C@@H](OC(=O)NCc2cccnc2)[C@H]2[C@H](CC3=C[C@H](C1)OC3=O)OC(=O)[C@@H]2CSc1ccc(F)cc1 | 19.3 |  | 
43 | C[C@@]12C[C@H]3C=C(C[C@@H]4OC(=O)[C@H](CSc5ccc(F)cc5)[C@H]4[C@H](OC(=O)C4CC4)[C@H]1O2)C(=O)O3 |  |  | inactive
44 | C/C1=C\[C@@H](OC(=O)NC2CC2)[C@H]2[C@H](CC3=C[C@H](C1)OC3=O)OC(=O)[C@@H]2CSc1ccc(F)cc1 | 15.9 |  | 
45 | C/C1=C\[C@@H](OC(=O)SC2CCCCC2)[C@H]2[C@H](CC3=C[C@H](C1)OC3=O)OC(=O)[C@@H]2CSc1ccc(F)cc1 | 3.94 |  | 
46 | C/C1=C\[C@@H](OC(=O)NCc2cccs2)[C@H]2[C@H](CC3=C[C@H](C1)OC3=O)OC(=O)[C@@H]2CSC(=S)N(C)C | 2.8 |  | 
